Laboratory results reported in PubChem BioAssay (NCI).
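Test compounds were applied to cells in 96-well plates for 48 hours at 5 doses. Here, GI50 denotes the concentration required for 50% inhibition of growth. TGI: total growth inhibition.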

What was measured:
Assay in all cases: inhibition of tumour cell growth, NCI panel, 48 h
PC-3 prostate = test system: PC-3 prostate
SNB-19 CNS = test system: SNB-19 CNS
SK-MEL-5 melanoma = test system: SK-MEL-5 melanoma
OVCAR-8 ovarian = test system: OVCAR-8 ovarian
MDA-MB-231 breast = test system: MDA-MB-231 breast
SF-268 CNS = test system: SF-268 CNS
HCC-2998 colon = test system: HCC-2998 colon
OVCAR-5 ovarian = test system: OVCAR-5 ovarian
CCRF-CEM leukemia = test system: CCRF-CEM leukemia
HOP-92 NSCLC = test system: HOP-92 NSCLC

Compound | GI50 (PC-3 prostate) [µM] | TGI (PC-3 prostate) [µM] | GI50 (SNB-19 CNS) [µM] | TGI (SNB-19 CNS) [µM] | GI50 (SK-MEL-5 melanoma) [µM] | TGI (SK-MEL-5 melanoma) [µM] | GI50 (OVCAR-8 ovarian) [µM] | TGI (OVCAR-8 ovarian) [µM] | GI50 (MDA-MB-231 breast) [µM] | TGI (MDA-MB-231 breast) [µM] | GI50 (SF-268 CNS) [µM] | TGI (SF-268 CNS) [µM] | GI50 (HCC-2998 colon) [µM] | TGI (HCC-2998 colon) [µM] | GI50 (OVCAR-5 ovarian) [µM] | TGI (OVCAR-5 ovarian) [µM] | GI50 (CCRF-CEM leukemia) [µM] | TGI (CCRF-CEM leukemia) [µM] | TGI (HOP-92 NSCLC) [µM] | GI50 (HOP-92 NSCLC) [µM]
O=C1CCCC(=O)C1C(=O)c1ccc(C(F)(F)F)cc1[N+](=O)[O-] | > 100 | > 100 | > 100 | > 100 | > 100 | > 100 | > 100 | > 100 | > 100 | > 100 | > 100 | > 100 | > 100 | > 100 | > 100 | > 100 | > 100 | > 100 | – | –
CN1CCc2cc(O)c3cc2C1Cc1ccc(cc1)Oc1cc(ccc1O)CC1c2c(cc4c(c2O3)OCO4)CCN1C (centres undefined) | – | – | – | > 100 | – | 33.1 | – | 48.9 | – | – | – | > 100 | – | 41.7 | – | 87.7 | – | > 100 | – | –
O=C(NCCCCCCNC(=O)NC1OCC(O)C(O)C1O)NC1OCC(O)C(O)C1O (centres undefined) | – | – | – | – | – | > 100 | – | > 100 | – | – | – | > 100 | – | – | – | > 100 | – | > 100 | > 100 | –
C(=C\c1nc2ccccc2s1)/c1ccc(N2CCOCC2)s1 | 33.7 | > 100 | 51.4 | > 100 | 21.8 | > 100 | 35.5 | > 100 | > 100 | > 100 | 44 | > 100 | – | – | 66.9 | > 100 | 55.7 | > 100 | 95.3 | 35.7
O=C(O)CP(=O)(c1ccccc1)c1ccccc1.O=C(O)CP(=O)(c1ccccc1)c1ccccc1.[Cd] | 18 | 35.1 | 48.1 | > 100 | 2.19 | 13.3 | 32.7 | > 100 | 15.7 | 32.2 | 37.3 | > 100 | – | – | 16 | 30.6 | – | – | 33.7 | 18.4
COc1cc2c3c(c1OCc1ccccc1)NCCC3NCC2 (centres undefined) | – | – | – | > 100 | – | > 100 | – | > 100 | – | – | – | > 100 | – | > 100 | – | > 100 | – | > 100 | > 100 | –
Cc1ccc(C)c(N2C(=O)C(=O)c3c(C)ccc(C)c32)c1 | – | > 100 | – | > 100 | – | 41.2 | – | 51.5 | – | 49.8 | – | 78.2 | – | – | – | > 100 | – | – | 96.8 | –
CCCCCCCCCCCCCC(=O)OC1C(CO)OC(=O)C1O (centres undefined) | – | – | – | > 100 | – | > 100 | – | > 100 | – | – | – | > 100 | – | > 100 | – | > 100 | – | > 100 | 95.9 | –
CCCN(CCC)c1ccc(/C=N/NC(=O)c2cccnc2)cc1 | 29.5 | > 100 | 53.8 | > 100 | 18.2 | 42 | 31.3 | > 100 | – | – | 31.2 | > 100 | 25 | > 100 | 38 | > 100 | 37.1 | > 100 | 64.8 | 20.3
O=C1C2C3CCC(C2C(=O)N1CO)C1C2C(=O)N(CO)C(=O)C2C31 (centres undefined) | – | – | – | > 100 | – | 98.9 | – | > 67.6 | – | – | – | > 86.3 | – | > 100 | – | > 100 | – | 48.2 | > 100 | –
CO[C@]12CCC(=O)N1C=Cc1c2[nH]c2ccccc12 | – | – | – | > 100 | – | > 100 | – | > 100 | – | – | – | > 100 | – | > 100 | – | > 100 | – | > 100 | > 100 | –
N#CC(C#N)=Cc1ccc(Oc2ccccc2)cc1 | – | – | – | > 100 | – | 64.7 | – | 73.7 | – | – | – | > 69.5 | – | > 100 | – | > 100 | – | > 75.4 | – | –
COc1cc(C2C(C(=O)OCc3ccccc3)=C(C)NC(C)=C2C(=O)OCc2ccccc2)cc(OC)c1OC | 1.48 | > 100 | 5.73 | > 100 | – | – | 4.52 | > 100 | 2.16 | > 100 | 5.17 | > 100 | – | – | – | – | – | – | 37.9 | 3.08
N#C/C(=C\c1ccc([N+](=O)[O-])s1)c1nc2cc(Br)ccc2s1 | 0.435 | 2.54 | 0.369 | > 100 | 0.167 | 0.311 | 0.246 | 0.805 | 0.179 | 0.43 | 0.468 | > 100 | – | – | – | – | 0.161 | > 100 | 0.451 | 0.175
CC1=C2[C@@H](c3ccccc3)C3C=CC2(c2ccccc23)N(C(=O)Nc2cccc3ccccc23)C1=O (some centres undefined) | – | – | – | > 100 | – | > 100 | – | > 100 | – | – | – | > 100 | – | > 100 | – | > 100 | – | > 100 | > 100 | –
CC(=O)OCc1c(C)c2ccccc2n1C(C)=O | – | – | – | > 100 | – | > 100 | – | > 100 | – | – | – | > 100 | – | > 100 | – | > 100 | – | 73.6 | > 100 | –
CCOC(=O)NN(C(=O)OCC)C(C(=O)c1ccc(Cl)cc1)=C1NCCN1 | – | – | – | > 100 | – | > 100 | – | > 100 | – | – | – | > 100 | – | > 100 | – | > 100 | – | > 100 | > 100 | –
Cc1cn2c(/C=N/N=C(N)N)c(-c3cc(Cl)sc3Cl)nc2s1 | 0.8 | 1.48 | 1.84 | > 50 | 0.905 | 1.74 | 1.19 | 2.9 | – | – | – | – | 0.888 | 1.6 | 0.886 | 1.59 | 0.76 | 1.57 | – | –
CN/N=C(/CC(=O)c1sc(-n2nc(-c3ccccc3)cc2-c2ccccc2)nc1C)C(=O)Nc1ccc(Cl)c(Cl)c1 | – | – | – | > 100 | – | > 100 | – | > 100 | – | – | – | > 100 | – | > 100 | – | 69.6 | – | > 100 | 70.4 | –
CC(C)N(C(=O)C12C3C4C5C3C1(C#N)C5C42)C(C)C (centres undefined) | – | – | – | > 100 | – | > 100 | – | > 100 | – | – | – | > 100 | – | > 100 | – | > 100 | – | > 100 | > 100 | –
Cc1ccc(S(=O)(=O)NC(=O)C#CCOC2CCCCO2)cc1 (centres undefined) | – | – | – | > 100 | – | > 100 | – | > 100 | – | – | – | – | – | > 100 | – | > 100 | – | > 100 | > 100 | –
